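Where inhibition never reached the appropriate level, the endpoint shown equals the highest concentration tested. Otherwise, values were interpolated linearly from a five-concentration, 48-hour dose response in 96-well plates. GI50 is the concentration that inhibits growth by half.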 Activity calls are given as the source filed them. No stated cut-off is given here; in the data, active = GI50 up to about 1.1 µM and inactive = higher.
Legend:
Assay in all cases: inhibition of tumour cell growth, NCI panel, 48 h
SF-539 = tested on: SF-539
IGROV-1 = tested on: IGROV-1
LOX IMVI = tested on: LOX IMVI
A549 = tested on: A549
SK-MEL-28 = tested on: SK-MEL-28
EKVX = tested on: EKVX
SNB-75 = tested on: SNB-75
HT-29 = tested on: HT-29
CAKI-1 = tested on: CAKI-1
UACC-257 = tested on: UACC-257
NCI-H522 = tested on: NCI-H522
HOP-62 = tested on: HOP-62
Malme-3M = tested on: Malme-3M
HOP-92 = tested on: HOP-92
SK-OV-3 = tested on: SK-OV-3
COLO 205 = tested on: COLO 205
OVCAR-5 = tested on: OVCAR-5
HL-60 = tested on: HL-60
DU-145 = tested on: DU-145

Row | Compound | GI50 (SF-539) | GI50 (IGROV-1) | GI50 (LOX IMVI) | GI50 (A549) | GI50 (SK-MEL-28) | GI50 (EKVX) | GI50 (SNB-75) | GI50 (HT-29) | GI50 (CAKI-1) | GI50 (UACC-257) | GI50 (NCI-H522) | GI50 (HOP-62) | GI50 (Malme-3M) | GI50 (HOP-92) | GI50 (SK-OV-3) | GI50 (COLO 205) | GI50 (OVCAR-5) | GI50 (HL-60) | GI50 (DU-145)
1 | CCOC(=O)COc1ccccc1/C=C1\CCC(CN(C)C)C1=O (stereo not given) | 11.9 µM (inactive) | 13.3 µM (inactive) | 2.22 µM (inactive) | 21.5 µM (inactive) | 2.62 µM (inactive) | 13.8 µM (inactive) | 15.9 µM (inactive) | 5.86 µM (inactive) | 3.02 µM (inactive) | 5.66 µM (inactive) | 2.72 µM (inactive) | 20.6 µM (inactive) | 5.19 µM (inactive) | 10.9 µM (inactive) | 17.5 µM (inactive) | 3.9 µM (inactive) | 17.9 µM (inactive) | 0.607 µM (active) | –
2 | CCOC(=O)C1=C(C)NC(=S)NC1c1ccccc1 (stereo not given) | > 100 µM (inactive) | > 100 µM (inactive) | > 63.7 µM (inactive) | > 100 µM (inactive) | > 100 µM (inactive) | > 100 µM (inactive) | > 100 µM (inactive) | > 96.4 µM (inactive) | > 20 µM (inactive) | > 100 µM (inactive) | > 63.8 µM (inactive) | > 100 µM (inactive) | > 100 µM (inactive) | > 100 µM (inactive) | > 100 µM (inactive) | > 45 µM (inactive) | > 100 µM (inactive) | 71.8 µM (inactive) | –
3 | COc1ccc(/C=N/Nc2nc3ccccc3c(=O)n2-c2ccccc2)cc1 | > 100 µM (inactive) | > 100 µM (inactive) | 95.1 µM (inactive) | > 100 µM (inactive) | > 100 µM (inactive) | > 100 µM (inactive) | 86.5 µM (inactive) | > 100 µM (inactive) | > 100 µM (inactive) | > 100 µM (inactive) | > 100 µM (inactive) | > 100 µM (inactive) | > 100 µM (inactive) | – | > 100 µM (inactive) | > 100 µM (inactive) | > 100 µM (inactive) | > 100 µM (inactive) | > 100 µM (inactive)
4 | CCN(CC)CCCNc1nccc2c(C)c3[nH]c4ccncc4c(=O)c3cc12 | 2.45 µM (inactive) | 2.93 µM (inactive) | 0.975 µM (active) | 3.01 µM (inactive) | 3.27 µM (inactive) | 5.68 µM (inactive) | 2.24 µM (inactive) | 1.32 µM (inactive) | 1.91 µM (inactive) | 6.84 µM (inactive) | 0.52 µM (active) | 3.11 µM (inactive) | 3.83 µM (inactive) | 1.75 µM (inactive) | 3.77 µM (inactive) | 2.55 µM (inactive) | 3.72 µM (inactive) | 2.79 µM (inactive) | –
5 | Nc1ccc(C(=O)NN2C(=O)C(Cl)C2c2ccc(O)cc2)cc1 (stereo not given) | 19.1 µM (inactive) | 17.8 µM (inactive) | 9.27 µM (inactive) | 56.9 µM (inactive) | 22.1 µM (inactive) | 16.6 µM (inactive) | 26.5 µM (inactive) | 24.7 µM (inactive) | 25.1 µM (inactive) | 36.1 µM (inactive) | 11.6 µM (inactive) | 21.7 µM (inactive) | 18.5 µM (inactive) | 24.5 µM (inactive) | 22.8 µM (inactive) | 18.8 µM (inactive) | 21.7 µM (inactive) | 15.6 µM (inactive) | –
6 | CNC(=O)OCc1nccc2c(C)c3[nH]c4ccc(OC)cc4c3cc12 | 3.17 µM (inactive) | 4.8 µM (inactive) | 3.04 µM (inactive) | 4.9 µM (inactive) | 9.73 µM (inactive) | 16.7 µM (inactive) | 7.82 µM (inactive) | 2.54 µM (inactive) | 19.1 µM (inactive) | 11.3 µM (inactive) | 5.09 µM (inactive) | 3.69 µM (inactive) | 7.98 µM (inactive) | 10.6 µM (inactive) | 10.7 µM (inactive) | 2.94 µM (inactive) | 22 µM (inactive) | 2.58 µM (inactive) | –
7 | CCc1cccc(=O)c([O-])c1.CCc1cccc(=O)c([O-])c1.[Bi+3].[Cl-] | 9.84 µM (inactive) | 6.78 µM (inactive) | 7.53 µM (inactive) | 8.97 µM (inactive) | 5.14 µM (inactive) | 13.8 µM (inactive) | 17.6 µM (inactive) | 4.31 µM (inactive) | 2.43 µM (inactive) | 6.58 µM (inactive) | 1.79 µM (inactive) | 11.6 µM (inactive) | 1.79 µM (inactive) | 12.9 µM (inactive) | 21.4 µM (inactive) | 2.29 µM (inactive) | 16.5 µM (inactive) | 2.54 µM (inactive) | –
8 | CSc1nc(-c2cc3c(c(SC)n2)CCCCC3)cc2c1CCCCC2 | > 100 µM (inactive) | 22.8 µM (inactive) | > 100 µM (inactive) | > 100 µM (inactive) | > 100 µM (inactive) | > 100 µM (inactive) | 34.3 µM (inactive) | > 100 µM (inactive) | > 100 µM (inactive) | > 100 µM (inactive) | 7.67 µM (inactive) | 56.9 µM (inactive) | – | – | 50.1 µM (inactive) | > 100 µM (inactive) | > 100 µM (inactive) | > 100 µM (inactive) | > 100 µM (inactive)
9 | CC1=CP(=O)(OC(C)C)CC(C)=C1Cl (stereo not given) | 95.1 µM (inactive) | > 100 µM (inactive) | > 100 µM (inactive) | > 100 µM (inactive) | > 100 µM (inactive) | > 100 µM (inactive) | > 100 µM (inactive) | 64.4 µM (inactive) | > 100 µM (inactive) | > 100 µM (inactive) | 52.6 µM (inactive) | > 100 µM (inactive) | > 100 µM (inactive) | > 100 µM (inactive) | > 100 µM (inactive) | > 100 µM (inactive) | > 100 µM (inactive) | > 100 µM (inactive) | –
10 | NC(=S)N/N=C1\NC(=O)/C(=C/c2ccc3c(c2)OCO3)S1 | 35.1 µM (inactive) | 17.1 µM (inactive) | 28.3 µM (inactive) | 30.6 µM (inactive) | 24 µM (inactive) | 21.6 µM (inactive) | 14.3 µM (inactive) | 28.6 µM (inactive) | 25.3 µM (inactive) | 31.6 µM (inactive) | – | 20.9 µM (inactive) | – | 21.5 µM (inactive) | 30 µM (inactive) | 26.3 µM (inactive) | 24.2 µM (inactive) | 20.6 µM (inactive) | 28.2 µM (inactive)
11 | CCN1C/C(=C\c2ccc(Cl)cc2)c2[nH]c(=O)c(C#N)c(-c3ccc(Cl)cc3)c2C1 | > 100 µM (inactive) | > 100 µM (inactive) | > 100 µM (inactive) | > 100 µM (inactive) | > 100 µM (inactive) | > 100 µM (inactive) | – | > 100 µM (inactive) | – | > 100 µM (inactive) | – | > 100 µM (inactive) | > 100 µM (inactive) | > 100 µM (inactive) | > 100 µM (inactive) | > 100 µM (inactive) | > 100 µM (inactive) | > 100 µM (inactive) | > 100 µM (inactive)
12 | Cc1ccccc1NC(=O)/C(=N/NC(=O)CC#N)C1C(=O)N(c2ccccc2)N=C1N (stereo not given) | > 100 µM (inactive) | > 100 µM (inactive) | > 100 µM (inactive) | > 100 µM (inactive) | > 100 µM (inactive) | > 100 µM (inactive) | > 100 µM (inactive) | > 100 µM (inactive) | > 100 µM (inactive) | > 100 µM (inactive) | 57.1 µM (inactive) | > 100 µM (inactive) | > 100 µM (inactive) | 36.5 µM (inactive) | > 100 µM (inactive) | > 100 µM (inactive) | > 100 µM (inactive) | 37.9 µM (inactive) | –
13 | C=CCN(CC=C)CC(C(C)=O)C(c1ccccc1)c1c(O)c2ccccc2oc1=O (stereo not given) | > 100 µM (inactive) | > 100 µM (inactive) | > 100 µM (inactive) | > 100 µM (inactive) | > 100 µM (inactive) | > 100 µM (inactive) | 39.6 µM (inactive) | > 100 µM (inactive) | > 100 µM (inactive) | > 100 µM (inactive) | 82.4 µM (inactive) | > 100 µM (inactive) | > 100 µM (inactive) | > 100 µM (inactive) | > 100 µM (inactive) | > 100 µM (inactive) | > 100 µM (inactive) | > 100 µM (inactive) | –
14 | O=C1CSC(c2c[nH]c3ccccc23)N1c1ccccc1[N+](=O)[O-] (stereo not given) | > 100 µM (inactive) | > 100 µM (inactive) | > 100 µM (inactive) | > 100 µM (inactive) | > 100 µM (inactive) | > 100 µM (inactive) | – | > 100 µM (inactive) | – | > 100 µM (inactive) | > 100 µM (inactive) | > 100 µM (inactive) | – | > 100 µM (inactive) | > 100 µM (inactive) | > 100 µM (inactive) | > 100 µM (inactive) | > 100 µM (inactive) | > 100 µM (inactive)
15 | Cc1ccc(C(=O)/C=C2\Nc3c(c(=O)oc4ccccc34)N=C2NC23CC4CC(CC(C4)C2)C3)cc1 | > 100 µM (inactive) | > 100 µM (inactive) | > 100 µM (inactive) | > 100 µM (inactive) | > 100 µM (inactive) | > 100 µM (inactive) | 28.6 µM (inactive) | > 100 µM (inactive) | > 100 µM (inactive) | > 100 µM (inactive) | > 100 µM (inactive) | > 100 µM (inactive) | > 100 µM (inactive) | 49.2 µM (inactive) | > 100 µM (inactive) | > 100 µM (inactive) | > 100 µM (inactive) | > 100 µM (inactive) | –
16 | c1ccc2c[n+](CCCC[n+]3ccc4ccccc4c3)ccc2c1 | > 100 µM (inactive) | > 100 µM (inactive) | > 100 µM (inactive) | 1.13 µM (inactive) | > 100 µM (inactive) | > 100 µM (inactive) | > 100 µM (inactive) | > 100 µM (inactive) | > 100 µM (inactive) | > 100 µM (inactive) | – | > 100 µM (inactive) | – | – | > 100 µM (inactive) | > 100 µM (inactive) | > 100 µM (inactive) | > 100 µM (inactive) | > 100 µM (inactive)
